This is an account of results in patent publication US20240336617A1, “Substituted Bimane Compounds and Methods of Use Thereof” (THE TRUSTEES OF THE UNIVERSITY OF PENNSYLVANIA, priority 2023, published 2024).

A short description of data set [1]: Viscosity measurements (glycerol mixtures). It is filed as physicochemical. As for the experimental part: As a representative example, the viscosity of 7k (25 μM, 10 mM stock in DMSO) in glycerol/methanol mixtures were measured, varying the glycerol percentage 0-99%.
Viscosity measurements. As a representative example, we have measured the viscosity of 5k (25 μM, 10 mM stock in DMSO) in glycerol/ethylene glycol (G/EG) mixtures, varying the glycerol percentage 0-90%. Then, the emission spectra were recorded using a PTI QuantaMaster™ 40 fluorescence spectrometer by excitation with 385 nm wavelength.

Data set [2] deals with T1, αS fibrils in HEK cell lysate (Homo sapiens, UniProt P37840).
T1 construct: intein-His6 (C, cleaved yes); made in house; host or cells: Escherichia coli BL21
Nature of the data set: Selectivity of probes binding with αS fibrils in HEK cell lysate. As to conditions: 10 mg/mL total protein; probe 1 μM. The protocol: HEK 293T cells were grown on 150 mm dishes in sterile-filtered Dulbecco's modified Eagle's medium (Gibco, Thermo Fisher) supplemented with 10% fetal bovine serum (FBS), 1% penicillin/streptomycin (Mediatech, 10 mg/ml each). Cells were then washed with PBS and harvested in 5 mL PBS by scraping. Cells were pelleted by centrifugation at 1000 rpm for 5 min, and the supernatant was removed. The resulting cell pellet was re-suspended in 300-500 μL PBS buffer with 0.1% Triton X-100 (Bio-Rad) and 1×HALT protease inhibitor cocktail without EDTA (Thermo Fisher), then lysed by sonication for two 30 s cycles (cycle 1: 2 s on 2 s off, amp 50; cycle 2: 2 s on 2 s off, amp 55) using a QSonica Q700 sonicator fitted with a microtip. […]
Probes in PBS buffer (1 μM, the stock solution prepared as 10 mM in DMSO) were incubated with different αS fibril concentrations (0, 5, 10, 25 and 50 μM) in the presence of 10 mg/mL HEK cell lysate in Greiner 96 well flat black ½ area plates at 37° C. with shaking at 500 rpm for 15 min in an IKA MS3 control orbital shaker. After 15 min incubation, fluorescence intensity measurements were obtained with a Tecan Spark plate reader (Mannedorf, Switzerland) by excitation with λex/λem=424/570 nm for 7k, λex/λem=463/580 nm for 7l, λex/λem=484/620 nm for 7m, using the following parameters: excitation and emission bandwidth 5 nm, delay time 0 μs, integration time 40 μs. […]

Data set [3] concerns the target T2, amplified αS fibrils (AFs) from PDD patient brain extracts (Homo sapiens, UniProt P37840).
T2 construct: made in house; host or cells: recombinant αS monomer, seeded with sarkosyl-insoluble extract of human frontal cortex (AD or PDD)
Nature of the data set: Fluorescence measurements with PDD patient cases (lysate, AFs, PFFs). Type of data set: binding. As to conditions: lysate or AFs and probe 1 μM. The protocol:
All procedures were performed in accordance with local institutional review board guidelines. Written informed consent for autopsy and analysis of tissue sample data was obtained either from patients themselves or their next of kin. Frozen postmortem human frontal cortex brain tissues from three patients diagnosed with Alzheimer's disease (AD) and three patients diagnosed with Parkinson's disease with dementia (PDD) were selected for sequential extraction of αS aggregates based on a high burden of αS pathology determined by immunohistochemical staining. In brief, 5-10 g of frontal cortical gray matter were homogenized in five volumes (W/V) of high-salt (HS) buffer (50 mM Tris-HCl pH 7.4, 750 mM NaCl, 10 mM NaF, 5 mM EDTA) with protease and protein phosphatase inhibitors, incubated on ice for 20 min and centrifuged at 100,000×g for 30 min. The pellets were then re-extracted with HS buffer, followed by sequential extractions with five volumes of 1% Triton X-100-containing HS buffer and 1% Triton X-100-containing HS buffer with 30% sucrose. The pellets were then re-suspended and homogenized in 1% sarkosyl-containing HS buffer, rotated at room temperature for 2 h or at 4° C. overnight and centrifuged at 100,000×g for 30 min. […] These final sarkosyl-insoluble fractions are referred to as “brain extracts.: The amount of αS in the brain extracts was determined by sandwich ELISA using Syn9027, a mono-clonal antibody (Mab) to αS, and the protein concentrations were examined by bicinchoninic acid (BCA) assay. […]
Brain-derived αS aggregates in extract samples from three AD and three PDD cases (FIG. 38A) were used as seeds for templated aggregation of recombinant αS monomer. […] After seven days of incubation, amplification progress was determined by removing an aliquot and diluting tenfold in DPBS to a final αS concentration of 3.5 μM. […] Equal volumes of supernatant and pellet fractions were analyzed on SDS-PAGE gels and Western blot, with amplified aggregates migrating to the pellet fraction (FIG. 38B). […]

Take `Cc1c(C)n2c(/C=C/c3ccc(N(C)C)cc3)c(C)c(=O)n2c1=O` [Compound 7l, (E)-3-(4-(dimethylamino)styryl)-2,5,6-trimethyl-1H,7H-pyrazolo[1,2-a]pyrazole-1,7-dione]: the “increase in fluorescence intensity with increased % glycerol” value in data set [1] (ethylene glycol/glycerol mixtures) amounted to 3.7 fold. Besides, the “detection of PFFs in cytosolic HEK cell lysate” value in data set [2] is recorded as “higher fluorescence turn on”. Also, in data set [3], the “fluorescence detection of PDD amplified fibrils (AFs)” value is recorded as “higher sensitivity to PDD derived AFs”.
Consider `Cc1c(C)n2c(/C=C/C=C/c3ccc(N(C)C)cc3)c(C)c(=O)n2c1=O` [Compound 7m, 3-((1E,3E)-4-(4-(dimethylamino)phenyl)buta-1,3-dien-1-yl)-2,5,6-trimethyl-1H,7H-pyrazolo[1,2-a]pyrazole-1,7-dione], for which, in data set [3], the “fluorescence detection of PDD amplified fibrils (AFs)” value is “selective increase in fluorescence for PDD AFs compared to AD AFs”.
Consider `Cc1c(C)n2c(/C=C/c3ccc(N4CCOCC4)cc3)c(C)c(=O)n2c1=O` [Compound 7k, (E)-2,3,6-trimethyl-5-(4-morpholinostyryl)-1H,7H-pyrazolo[1,2-a]pyrazole-1,7-dione], for which, in data set [1] (glycerol/MeOH mixtures), the “increase in fluorescence intensity with % glycerol” value is recorded as more than 6 fold and the “red-shift with % glycerol” value is recorded as 12 nm. In data set [2], the “detection of PFFs in cytosolic HEK cell lysate” value is given as “higher fluorescence turn on”.
